Assay results published in US8685974B2 (Bayer CropScience AG, priority 2009, dated 2014).
“And” between values parts separate entries of the source, which are not always exact repeats. Identical values can stand only once. Like-named read-outs stand apart in the source and are kept apart here. Marks after values point to notes of the source that are not given here.

Legend:
[1] = test system: Mycosphaerella graminicola; experiment: In vivo test on Mycosphaerella graminicola (wheat leaf spot); conditions: dose of 500 ppm; wheat plants; grading 21 to 28 days after contamination
Experimental: In Vivo Test on Mycosphaerella graminicola (Wheat Leaf Spot)
The active ingredients tested are prepared by homogenization in a mixture of acetone/tween/DMSO, then diluted with water to obtain the desired active material concentration.
Wheat plants (Scipion variety), sown on a 50/50 peat soil-pozzolana substrate in starter cups and grown at 12° C., are treated at the 1-leaf stage (10 cm tall) by spraying with the aqueous suspension described above. Plants, used as controls, are treated with an aqueous solution not containing the active material.
After 24 hours, the plants are contaminated by spraying them with an aqueous suspension of Mycosphaerella graminicola spores (500 000 spores per ml). The spores are collected from a 7-day-old culture. The contaminated wheat plants are incubated for 72 hours at 18° C. and at 100% relative humidity, and then for 21 to 28 days at 90% relative humidity.
Grading (% of efficacy) is carried out 21 to 28 days after the contamination, in comparison with the control plants.

[2] = for logP value of the minor isomer (in parenthesis in column Isomer ratio [d]): main value of the example measured by method [b]
Puccinia recondita = experiment: In vivo test on Puccinia recondita (brown rust); conditions: dose of 500 ppm; wheat plants; grading 10 days after contamination
Experimental: In Vivo Test on Puccinia recondita (Brown Rust)
(§1) The active ingredients tested are prepared by homogenization in a mixture of acetone/tween/DMSO, then diluted with water to obtain the desired active material.
Wheat plants (Scipion variety) sown on 50/50 peat soil-pozzolana substrate in starter cups and grown at 12° C., are treated at the 1-leaf stage (10 cm tall) by spraying with the aqueous suspension described above.
(§2) Plants, used as controls, are treated with an aqueous solution not containing the active material.
After 24 hours, the plants are contaminated by spraying the leaves with an aqueous suspension of Puccinia recondita spores (100,000 spores per ml). The spores are collected from a 10-day-old contaminated wheat and are suspended in water containing 2.5 ml/l of tween 80 10%. The contaminated wheat plants are incubated for 24 hours at 20° C. and at 100% relative humidity, and then for 10 days at 20° C. and at 70% relative humidity.
Grading is carried out 10 days after the contamination, in comparison with the control plants.

Pyrenophora teres = experiment: In vivo test on Pyrenophora teres (barley net blotch); conditions: dose of 500 ppm; barley plants; grading 12 days after contamination
How it was run: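 Scoring is done 12 days after spore spraying (12,000 spores/ml, from 12-day-old culture), relative to water-treated controls. Inoculation follows by 24 h a preventive spray of the aqueous-diluted formulation onto 1-leaf Plaisant barley raised at 12° C.; infection holds 24 h at about 20° C./100% RH, then 12 days at 80% RH.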

Fusarium proliferatum = experiment: Production of fumonisin FB1 by Fusarium proliferatum (microtiter plate, HPLC-MS/MS and OD620); format: cell-based; conditions: for % inhibition FB1 production at 50 μM: 5 days at 20° C., HPLC-MS/MS; for % inhibition fungal growth at 50 μM: Fusarium proliferatum, OD620 at start and after 5 days
Botrytis cinerea = experiment: In vivo test on Botrytis cinerea (grey mould); conditions: dose of 500 ppm; gherkin plants; grading 5/7 days after contamination
Experimental: In Vivo Test on Botrytis cinerea (Grey Mould)
The active ingredients tested are prepared by homogenization in a mixture of acetone/Tween/DMSO, then diluted with water to obtain the desired active material
Gherkin plants (Vert petit de Paris variety), sown on a 50/50 peat soil-pozzolana substrate in starter cups and grown at 18-20° C., are treated at the cotyledon Z11 stage by spraying with the active ingredient prepared as described above.
as §2
After 24 hours, the plants are contaminated by depositing drops of an aqueous suspension of Botrytis cinerea spores (150,000 spores per ml) on upper surface of the leaves. The spores are collected from a 15-day-old culture and are suspended in a nutrient solution composed of: • 20 g/L of gelatine; • 50 g/L of D-fructose; • 2 g/L of NH4NO3; • 1 g/L of KH2PO4.
The contaminated cucumber plants are settled for 5/7 days in a climatic room at 15-11° C. (day/night) and at 80% relative humidity.
Grading is carried out 5/7 days after the contamination, in comparison with the control plants.

Sphaerotheca fuliginea = experiment: In vivo test on Sphaerotheca fuliginea (cucurbits powdery mildew); conditions: dose of 500 ppm; gherkin plants; grading 12 days after contamination
Experimental: In Vivo Test on Sphaerotheca fuliginea (Cucurbits Powdery Mildew)
as §1
Gherkin plants (Vert petit de Paris variety) in starter cups, sown on a 50/50 peat soil-pozzolana substrate and grown at 20° C./23° C., are treated at the cotyledon Z10 stage by spraying with the aqueous suspension described above. Plants, used as controls, are treated with an aqueous solution not containing the active material.
After 24 hours, the plants are contaminated by spraying them with an aqueous suspension of Sphaerotheca fuliginea spores (100 000 spores per ml). The spores are collected from a contaminated plants. The contaminated gherkin plants are incubated at about 20° C./25° C. and at 60/70% relative humidity.
Grading (% of efficacy) is carried out 12 days after the contamination, in comparison with the control plants.

Peronospora parasitica = experiment: In vivo test on Peronospora parasitica (crucifer downy mildew); conditions: dose of 500 ppm; cabbage plants; grading 5 days after contamination
Experimental: In Vivo Test on Peronospora parasitica (Crucifer Downy Mildew)
The active ingredients tested are prepared by homogenization in a mixture of acetone/Tween/DMSO, then diluted with water to obtain the desired active material concentration.
Cabbage plants (Eminence variety) in starter cups, sown on a 50/50 peat soil-pozzolana substrate and grown at 18-20° C., are treated at the cotyledon stage by spraying with the aqueous suspension described above.
as §2
After 24 hours, the plants are contaminated by spraying them with an aqueous suspension of Peronospora parasitica spores (50 000 spores per ml). The spores are collected from infected plant.
The contaminated cabbage plants are incubated for 5 days at 20° C., under a humid atmosphere.
Grading is carried out 5 days after the contamination, in comparison with the control plants.

Rhizoctonia solani = experiment: Rhizoctonia test (rice) / protective; format: in vivo; conditions: 500 ppm active compound, protective spray, evaluated 4 days after inoculation
Experimental: Rhizoctonia Test (Rice)/Protective
Solvent: 28.5 parts by weight of acetone
Emulsifier: 1.5 parts by weight of polyoxyethylene alkyl phenyl ether
To produce a suitable preparation of active compound, 1 part by weight of active compound is mixed with the stated amounts of solvent and emulsifier, and the concentrate is diluted with water to the desired concentration.
To test for protective activity, young plants are sprayed with the preparation of active compound at the stated rate of application. One day after spraying, the plants are inoculated with a hypha of the causal agent of rice sheath blight (Rhizoctonia solani). The plants are then placed in an incubator at approximately 25° C. and a relative atmospheric humidity of approximately 100%.
The test is evaluated 4 days after the inoculation. 0% means an efficacy which corresponds to that of the control, while an efficacy of 100% means that no disease is observed.

Cochliobolus miyabeanus = experiment: Cochliobolus test (rice) / protective; format: in vivo; conditions: 500 ppm active compound, protective spray, evaluated 4 days after inoculation
Aspergillus parasiticus = format: cell-based; conditions: for % Inhibition of Aflatoxin at 50 μM: 7 days at 20° C.
Fusarium graminearum = format: cell-based; conditions: 50 μM; for % Inhibition of DON/AcDON at 50 μM: 7 days at 28° C.
Alternaria solani = experiment: Alternaria test (tomato) / protective; format: in vivo; conditions: 500 ppm active compound, protective spray, evaluated 7 days after inoculation
How it was run: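 Efficacy scored 7 days after inoculation, where 100% means no infection and 0% matches the untreated control. Test plants were young tomatoes given a protective spray at the stated rate, compound dissolved in DMF plus emulsifier and diluted with water. Incubation at 20° C, 96% relative humidity.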

Leptosphaeria nodorum = Leptosphaeria nodorum test (wheat) / protective; format: in vivo; conditions: 500 ppm active compound, protective spray, evaluated 7-9 days after inoculation
How it was run: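 Young wheat plants sprayed protectively with compound in DMF/alkylaryl polyglycol ether emulsion diluted in water, then kept in greenhouse at 90% rel. humidity, 22° C. Scored 7-9 days after inoculation as % efficacy, 0% equal to untreated control and 100% no infection.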

Pyricularia oryzae = conditions: in vivo
Pyricularia grisea = conditions: in vivo

SMILES	protection (% of efficacy) [1]	log p ([2]; pH 2.7)	protection (Puccinia recondita)	protection (Pyrenophora teres)	protection (Botrytis cinerea)	protection (% of efficacy) (Sphaerotheca fuliginea)	further results
CC(C)CCn1cc(-c2ccncc2)c(-c2ccc(Cl)s2)n1 [Example 17]	70%	2.45^[b]	70%	100%			
Clc1ccc(-c2n[nH]cc2-c2ccncc2)s1 [Example 1]	75%	0.96^[b]		90%			% inhibition FB1 production at 50 μM (Fusarium proliferatum): 82%; % inhibition fungal growth at 50 μM (Fusarium proliferatum): 41%
FCCn1cc(-c2ccncc2)c(-c2ccc(Cl)s2)n1 [Example 62]		1.39^[b]	88%		98%	94%	logP value of the minor isomer (in parenthesis in column Isomer ratio [d]) ([2]; pH 2.7): (1.25); protection (Peronospora parasitica): 89%
ClC(Cl)=CCn1cc(-c2ccncc2)c(-c2ccc(Cl)s2)n1 [Example 50]		2.3^[b]		70%			logP value of the minor isomer (in parenthesis in column Isomer ratio [d]) ([2]; pH 2.7): (2.07); efficacy (Rhizoctonia solani): 93%
Clc1ccc(-c2n[nH]cc2-c2ccncn2)s1 [Example 3]	86%	1.74^[b]					% inhibition FB1 production at 50 μM (Fusarium proliferatum): 99%; % inhibition fungal growth at 50 μM (Fusarium proliferatum): 46%; log p ([2]; pH 2.3): 1.82^[a];
FC(F)(F)Cn1cc(-c2ccncc2)c(-c2ccc(Cl)s2)n1 [Example 54]		1.88^[b]					efficacy (Cochliobolus miyabeanus): 90%; efficacy (Rhizoctonia solani): 100%
Nc1cc(-c2cn(CCF)nc2-c2ccc(Cl)s2)ccn1 [Example 296]		1.46^[b]		70%			% Inhibition of fungal growth at 50 μM (Aspergillus parasiticus): 47%; % Inhibition of Aflatoxin at 50 μM (Aspergillus parasiticus): 74%
Clc1ccc(-c2nn(C3CCCC3)cc2-c2ccncc2)s1 [Example 15]		2.25^[b]		89%	100%	92%	
ClCCn1cc(-c2ccncc2)c(-c2ccc(Cl)s2)n1 [Example 55]		1.65^[b]		80%	75%		logP value of the minor isomer (in parenthesis in column Isomer ratio [d]) ([2]; pH 2.7): (1.50)
Clc1ccc(-c2nn(C3CCC3)cc2-c2ccncc2)s1 [Example 18]		2.04^[b]	89%	100%	100%	83%	
C=CC(C)n1cc(-c2ccncc2)c(-c2ccc(Cl)s2)n1 (racemic) [Example 61]	77%	1.91^[b]	77%			94%	efficacy (Cochliobolus miyabeanus): 92%; logP value of the minor isomer (in parenthesis in column Isomer ratio [d]) ([2]; pH 2.7): (1.76); efficacy (Rhizoctonia solani): 98%; protection (Peronospora parasitica): 100%
CCC(C)n1nc(-c2ccc(Cl)s2)c(-c2ccncc2)c1SC (stereo not shown) [Example 298]		3.35^[b]					% Inhibition of fungal growth at 50 μM (Fusarium graminearum): 38%; % Inhibition of DON/AcDON at 50 μM (Fusarium graminearum): 100%; % Inhibition of fungal growth at 50 μM (Aspergillus parasiticus): 64%; % Inhibition of Aflatoxin at 50 μM (Aspergillus parasiticus): 99%; efficacy (Alternaria solani): 95%
CC(C)Cn1cc(-c2ccncc2)c(-c2ccc(Cl)s2)n1 [Example 21]	85%	2.08^[b]	75% and 85%	100%	100%	89%	% Inhibition of fungal growth at 50 μM (Fusarium graminearum): 96%; % Inhibition of DON/AcDON at 50 μM (Fusarium graminearum): 100%; % inhibition FB1 production at 50 μM (Fusarium proliferatum): 100%; % inhibition fungal growth at 50 μM (Fusarium proliferatum): 91%
COCn1cc(-c2ccncc2)c(-c2ccc(Cl)s2)n1 [Example 52]	97%	1.38^[b]	97%	86%	at least 70%	90%	
CCC(CC)n1cc(-c2ccncc2)c(-c2ccc(Cl)s2)n1 [Example 64]	88%	2.18^[b]	88%	95%	98%	98%	efficacy (Cochliobolus miyabeanus): 97%; efficacy (Leptosphaeria nodorum): 78%; efficacy (Alternaria solani): 80%; efficacy (Rhizoctonia solani): 100%
CC(C)Cn1ncc(-c2ccncc2)c1-c1ccc(Cl)s1 [Example 6]	70%		70%			75%	log p ([2]; pH 2.3): 2.2^[a]
Cn1cc(-c2ccncc2)c(-c2ccc(Cl)s2)n1 [Example 46]		1.26^[b]		70%			efficacy (Pyricularia oryzae): 93%; efficacy (Alternaria solani): 95%; logP value of the minor isomer (in parenthesis in column Isomer ratio [d]) ([2]; pH 2.7): (1.17); protection (% of efficacy) (Pyricularia grisea): 93%; protection (Peronospora parasitica): 92%
Clc1ccc(-c2nn(C3CCCCO3)cc2-c2ccncc2)s1 (stereo not shown) [Example 45]	71%	1.91^[b]					
